Test results taken from paper PMC11360483, “Anti-Inflammatory, Antibacterial, Anti-Biofilm, and Anti-Quorum Sensing Activities of the Diterpenes Isolated from Clinopodium bolivianum” (Pharmaceutics, 2024).
In brackets after ≈: the same amount, converted by molar mass. Several values for one entry are separate records, joined by “and”; a condition that tells them apart may be missing. Equal entries are not always repeated. Structures can show the parent of a compound that is named as a salt. Where two headings read alike, the source gives them in different places. *1 amine or outer side, *2 acyl side, *3 side chain or, on linkers, in order; H or OH if unused. Where a SMILES comes first, the peptide text is derived from it. Bridges are numbered along the chain shown (N, C = ends). Roman numbers before positions name the chains, in order. [ ]: non-standard residue; d: D form. Actinocin(9to1) = Cc1c2oc3c(C)ccc(C(=O)[*:1])c3nc-2c(C(=O)[*:2])c(N)c1=O; NMeV = CN[C@H](C(=O)O)C(C)C; Sar = CNCC(=O)O

Tests used:
NF-κB [1] = experiment: NF-κB inhibition assay (LPS-stimulated) in HBEC3-KT; assay type: cell-based; settings: Homo sapiens, 24 h, read-out: NF-κB Inhibition at 24 h IC50 ± SEM
NF-κB [2] = experiment: NF-κB inhibition assay (LPS-stimulated) in MRC-5; assay type: cell-based; settings: Homo sapiens, read-out: NF-κB Inhibition at 24 h IC50 ± SEM
NF-κB [3] = experiment: NF-κB inhibition assay (LPS-stimulated) in THP-1; assay type: cell-based; settings: Homo sapiens, read-out: NF-κB Inhibition at 24 h IC50 ± SEM
H. influenzae [4] = experiment: microbe, parasite or virus in culture; assay type: cell-based; settings: Haemophilus influenzae, 24 h
L. pneumophila [5] = experiment: microbe, parasite or virus in culture; assay type: cell-based; settings: Legionella pneumophila, 24 h
S. pneumoniae [6] = experiment: microbe, parasite or virus in culture; assay type: cell-based; settings: Streptococcus pneumoniae, 24 h
S. aureus [7] = experiment: microbe, parasite or virus in culture; assay type: cell-based; settings: Staphylococcus aureus, 24 h
H. influenzae [8] = assay type: cell-based, Haemophilus influenzae
L. pneumophila [9] = assay type: cell-based, Legionella pneumophila
S. pneumoniae [10] = assay type: cell-based, Streptococcus pneumoniae
S. aureus [11] = assay type: cell-based, Staphylococcus aureus
C. violaceum [12] = experiment: Anti-biofilm activity on C. violaceum; assay type: cell-based, Chromobacterium violaceum
C. violaceum [13] = assay type: cell-based, Chromobacterium violaceum; settings: for % of Violacein Inhibition: at the Anti-QS concentration (compound 3 at 0.94 µM, compound 4 at 1.16 µM)
[14] = test system: H. influenzae, L. pneumophila, S. pneumoniae, and S. aureus; experiment: organism not typed; assay type: cell-based
Hep3B cells = test system: Hep3B cells; set-up: method as in PMID 37423053; settings: cited from earlier work
Huh7 cells = test system: Huh7 cells; set-up: method as in PMID 37423053; settings: cited from earlier work
[15] = WST-1 cytotoxicity assay, cell line not singled out; settings: human
[16] = WST-1 cytotoxicity (viability) assay, control cell line; settings: human
[17] = WST-1 cytotoxicity (viability) assay; settings: human, WST-1, 24 h, HBEC3-KT
[18] = WST-1 cytotoxicity (viability) assay; settings: human, WST-1, 24 h, MRC-5
[19] = test system: H. influenzae, L. pneumophila, S. pneumoniae, and S. aureus; assay type: cell-based; settings: strain not stated
RAW 264.7 cells = test system: RAW 264.7 cells; set-up: method as in doi:10.1016/j.phytol.2020.01.005; settings: read-out: IC50, inhibition of nitric oxide (NO) production; cited from earlier work
[20] = test system: H. influenzae, L. pneumophila, S. pneumoniae, and S. aureus; assay type: cell-based; settings: strain not stated; remark: listed apart in the source
[21] = MRC5, MRC-5, LPS-stimulated, 24 h
[22] = range over S. pneumoniae and S. aureus Gram-positive bacteria
[23] = value given in the method for the compounds
[24] = value given in the method for the extracts

SMILES | IC50 (NF-κB [1]; LPS-stimulated) | IC50 (NF-κB [2]; [21]) | IC50 (NF-κB [3]; THP-1, LPS-stimulated, 24 h) | MIC (H. influenzae [4]) | MIC (L. pneumophila [5]) | MIC (S. pneumoniae [6]) | MIC (S. aureus [7]) | Quorum Sensing Inhibition at 24 h Anti-QS ± SEM (H. influenzae [8]) | Quorum Sensing Inhibition at 24 h Anti-QS ± SEM (L. pneumophila [9]) | Quorum Sensing Inhibition at 24 h Anti-QS ± SEM (S. pneumoniae [10]) | Quorum Sensing Inhibition at 24 h Anti-QS ± SEM (S. aureus [11]) | BIC (C. violaceum [12]) | Anti-QS (C. violaceum [13]) | % of Violacein Inhibition (C. violaceum [13]) | CC50 at 24 h [16] | also measured
CC1=C2C=C3CCC4C(C)(C)CCC[C@]4(C)C3CC2OC1=O (single isomer, unassigned; (-)) [Compound 3, (−)-Jolkinolide E] | 18 ± 0.37 µM | 23.96 ± 0.21 µM | 29.4 ± 0.48 µM | 4.89 µM (≈ 1.47 µg/mL) | 1.71 µM (≈ 0.514 µg/mL) | 0.53 µM (≈ 0.159 µg/mL) | 1.09 µM (≈ 0.327 µg/mL) | 0.64 ± 0.01 µM | 0.31 ± 0.03 µM | 3.01 ± 0.07 µM | 4.88 ± 0.09 µM | 1.62 ± 0.06 µM | 0.94 ± 0.03 µM | 78.13% | 71.2 µM | MIC [14, 22]: 0.53 to 1.09 µM; cytotoxicity (Hep3B cells): 37.23 µM; cytotoxicity (Huh7 cells): 39.53 µM; CC50 at 24 h [15]: > 70 µM
Cc1c2oc3c(C)ccc(C(=O)N[C@@H]4C(=O)N[C@H](C(C)C)C(=O)N5CCC[C@H]5C(=O)N(C)CC(=O)N(C)[C@@H](C(C)C)C(=O)O[C@@H]4C)c3nc-2c(C(=O)N[C@@H]2C(=O)N[C@H](C(C)C)C(=O)N3CCC[C@H]3C(=O)N(C)CC(=O)N(C)[C@@H](C(C)C)C(=O)O[C@@H]2C)c(N)c1=O [ACTD, Actinomycin D, reference compound] (I: T[dV]P[Sar][NMeV] / II: T[dV]P[Sar][NMeV]; ester I:1-I:C, II:1-II:C; linker I:N-II:N via Actinocin(9to1)) | – | – | – | – | – | – | – | – | – | – | – | – | – | – | – | CC50 at 24 h [17]: 0.014 µg/mL and 10 nM; CC50 at 24 h [18]: 0.017 µg/mL and 10 nM; CC50 at 24 h ([15]; CC50, cell line not singled out, for the compounds): 0.008 µM; CC50 at 24 h ([15]; CC50 of positive control, value given in the method for the extracts, cell line not stated): 0.01 µg/mL; CC50 at 24 h ([16]; Viability (CC50), WST-1, 24 h, THP-1): 0.019 µg/mL and 10 nM
CC1=C(O)C(=O)C=C2C1=CC=C1[C@@]2(C)CC[C@@]2(C)[C@@H]3C[C@](C)(C(=O)O)CC[C@]3(C)CC[C@]12C [CEL, Celastrol, reference compound] | – | – | – | – | – | – | – | – | – | – | – | – | – | – | – | IC50 (NF-κB [1]): 7.15 µM and 3.24 µg/mL; IC50 (NF-κB [2]; MRC5, 24 h): 7.41 µM and 3.27 µg/mL; IC50 (NF-κB [3]; THP-1, 24 h): 7.63 µM and 3.34 µg/mL
N=C(NCCCCCCNC(=N)NC(=N)Nc1ccc(Cl)cc1)NC(=N)Nc1ccc(Cl)cc1.O=C(O)[C@H](O)[C@@H](O)[C@H](O)[C@H](O)CO.O=C(O)[C@H](O)[C@@H](O)[C@H](O)[C@H](O)CO [CHG, chlorhexidine digluconate] | – | – | – | – | – | – | – | – | – | – | – | – | – | – | – | BIC of reference control [19, 23]: 2.23 µM; BIC of reference control [19, 24]: 2000 µg/mL
O=C(O)c1cn(C2CC2)c2cc(N3CCNCC3)c(F)cc2c1=O [CIP, Ciprofloxacin hydrochloride, reference compound] | – | – | – | – | – | – | – | – | – | – | – | 2.13 ± 0.01 µM | 1.51 ± 0.01 µM | 71.68% | – | violacein inhibitory concentration (CIV) (C. violaceum [13]; reference standard): 1.51 µM
CC(C)(O)C1=CC2=CCC3[C@](C)(CCC[C@@]3(C)C(=O)O)C2CC1=O (some centres unmarked) [Compound 1, 15-Hydroxy-12-oxo-abietic acid] | 27.9 ± 0.89 µM | 39.01 ± 0.22 µM | 43.4 ± 0.73 µM | 28.3 µM (≈ 9.42 µg/mL) | 20.2 µM (≈ 6.72 µg/mL) | 4.14 µM (≈ 1.38 µg/mL) | 7.88 µM (≈ 2.62 µg/mL) | 4.64 ± 0.09 µM | 2.44 ± 0.09 µM | 9.89 ± 0.04 µM | 12.24 ± 0.08 µM | 11.31 ± 0.07 µM | 4.83 ± 0.05 µM | 20.45% | 88.4 µM | –
CC(C)C1=CC2=CC[C@@H]3[C@](C)(CCC[C@@]3(C)C(=O)O)[C@H]2C[C@@H]1O [Compound 2, 12α-Hydroxyabietic acid] | 21.9 ± 0.23 µM | 26.9 ± 0.61 µM | 32.6 ± 0.69 µM | 23.5 µM (≈ 7.47 µg/mL) | 17.2 µM (≈ 5.49 µg/mL) | 3.31 µM (≈ 1.05 µg/mL) | 5.42 µM (≈ 1.73 µg/mL) | 3.19 ± 0.04 µM | 1.95 ± 0.07 µM | 8.14 ± 0.05 µM | 11.81 ± 0.07 µM | 7.54 ± 0.05 µM | 3.55 ± 0.06 µM | 48.88% | 84.3 µM | –
CC(C)(O)c1ccc2c(c1)CC[C@H]1[C@](C)(C(=O)O)CCC[C@]21C [Compound 4, 15-Hydroxydehydroabietic acid] | 10.8 ± 0.69 µM | 17.4 ± 0.82 µM | 23.4 ± 0.71 µM | 15.4 µM (≈ 4.88 µg/mL) | 9.83 µM (≈ 3.11 µg/mL) | 2.06 µM (≈ 0.652 µg/mL) | 4.06 µM (≈ 1.28 µg/mL) | 2.39 ± 0.03 µM | 1.21 ± 0.04 µM | 7.78 ± 0.01 µM | 10.08 ± 0.08 µM | 5.81 ± 0.02 µM | 1.16 ± 0.06 µM | 71.60% | 78.9 µM | MIC [14, 22]: 2.06 to 4.06 µM; IC50 (RAW 264.7 cells): 50.9 µM
O=C1C=C(Br)/C(=C/Br)O1 [Furanone C-30, (Z)-4-Bromo-5-(bromomethylene)-2(5H)-furanone, reference compound] | – | – | – | – | – | – | – | 11.81 ± 0.05 μM and 3.21 ± 0.02 μg/mL | 11.59 ± 0.03 μM and 3.03 ± 0.08 μg/mL | 12.03 ± 0.08 μM and 3.44 ± 0.06 μg/mL | 12.67 ± 0.02 μM and 3.77 ± 0.04 μg/mL | – | – | – | – | Anti-QS value of positive control [20, 23]: 11.81 µM; Anti-QS value of positive control [20, 24]: 3 µg/mL
CC1COc2c(N3CCN(C)CC3)c(F)cc3c(=O)c(C(=O)O)cn1c23 (centres unmarked) [OFX, Ofloxacin, reference compound] | – | – | – | 12.3 µg/mL and 28.4 µM | 11.3 µg/mL and 26.8 µM | 9.03 µg/mL and 25.1 µM | 10 µg/mL and 24.1 µM | – | – | – | – | – | – | – | – | MIC ([14]; read-out: MIC of positive control, for the compounds, strain not stated or range over the four strains): 27.7 µM; MIC ([14]; read-out: MIC of positive control, value given in the method for the extracts, strain not stated): 10 µg/mL
